Test results from article PMC3150614 (Journal of medicinal chemistry, 2011).

How the values were obtained:
[1] = molecular target: T1, Plasmodium falciparum arginase (PFA) (Plasmodium falciparum, UniProt Q8I384); format: biochemical; conditions: racemic mixtures
T1 sequence (Q8I384 1-411): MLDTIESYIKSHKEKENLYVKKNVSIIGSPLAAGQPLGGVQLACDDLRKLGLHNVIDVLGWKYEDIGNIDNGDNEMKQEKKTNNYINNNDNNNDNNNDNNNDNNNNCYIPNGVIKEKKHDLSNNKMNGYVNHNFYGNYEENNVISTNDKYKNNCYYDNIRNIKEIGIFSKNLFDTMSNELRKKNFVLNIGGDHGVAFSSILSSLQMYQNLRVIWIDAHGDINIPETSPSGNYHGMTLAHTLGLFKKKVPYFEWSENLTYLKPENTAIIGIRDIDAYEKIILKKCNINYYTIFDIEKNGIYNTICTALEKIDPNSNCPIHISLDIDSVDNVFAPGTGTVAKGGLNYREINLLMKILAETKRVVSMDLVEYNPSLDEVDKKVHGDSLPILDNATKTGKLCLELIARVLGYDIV

[2] = molecular target: T2, human arginase I (HAI) (Homo sapiens, UniProt P05089); experiment: Surface plasmon resonance binding to immobilized HAI; conditions: based on Kd, racemic mixtures
T2 sequence (P05089 1-322): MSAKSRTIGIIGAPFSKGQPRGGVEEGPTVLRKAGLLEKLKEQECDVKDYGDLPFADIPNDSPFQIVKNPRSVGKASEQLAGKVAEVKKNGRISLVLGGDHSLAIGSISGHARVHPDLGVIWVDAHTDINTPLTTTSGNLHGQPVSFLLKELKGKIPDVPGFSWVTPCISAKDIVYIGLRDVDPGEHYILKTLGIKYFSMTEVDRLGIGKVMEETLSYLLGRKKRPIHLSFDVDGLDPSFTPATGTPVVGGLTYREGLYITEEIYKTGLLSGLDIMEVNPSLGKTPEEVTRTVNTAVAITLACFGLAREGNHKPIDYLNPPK

| SMILES | fold weaker inhibitory potency against PFA than ABH, based on Ki [1] | fold less tight binding to HAI compared with ABH [2] |
| --- | --- | --- |
| NC(CCCCB(O)O)(C(=O)O)C(F)F (stereo not shown) [FABH, 2-Amino-6-borono-2-(difluoromethyl)hexanoic acid] | 200 fold | 1889 fold |
| CC(N)(CCCCB(O)O)C(=O)O (stereo not shown) [MABH, 2-Amino-6-borono-2-methylhexanoic acid] | 26 fold | 49 fold |
